Source: PMC11694556 (Proteins, 2024)

Columns and labels:
Format in all cases: binding
[1] = target: T1, cypin (cytosolic PSD-95 interactor; guanine deaminase) (Rattus norvegicus, UniProt Q9WTT6); assay: intrinsic tryptophan fluorescence quenching; also NADH-coupled assay (Km […]) and LC-MS of deaminated product
T1 construct: gene Gda
T1 sequence (Q9WTT6 1-454): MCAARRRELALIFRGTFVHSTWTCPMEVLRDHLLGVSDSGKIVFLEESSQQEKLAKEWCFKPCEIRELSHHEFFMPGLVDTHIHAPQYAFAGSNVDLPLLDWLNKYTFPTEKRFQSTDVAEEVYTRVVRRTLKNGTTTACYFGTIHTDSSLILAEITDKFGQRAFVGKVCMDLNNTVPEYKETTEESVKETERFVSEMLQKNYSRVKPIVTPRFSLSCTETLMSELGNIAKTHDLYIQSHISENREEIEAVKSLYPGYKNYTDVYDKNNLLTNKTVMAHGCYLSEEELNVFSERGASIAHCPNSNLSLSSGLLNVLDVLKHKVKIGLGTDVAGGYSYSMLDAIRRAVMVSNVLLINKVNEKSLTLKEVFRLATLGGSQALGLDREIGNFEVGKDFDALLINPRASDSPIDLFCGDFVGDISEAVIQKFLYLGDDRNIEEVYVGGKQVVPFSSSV

[2] = target: T1, cypin (cytosolic PSD-95 interactor; guanine deaminase); assay: intrinsic tryptophan fluorescence quenching; also NADH-coupled deaminase assay (Km […])
[3] = target: T1, cypin (cytosolic PSD-95 interactor; guanine deaminase); assay: intrinsic tryptophan fluorescence quenching (Hill fit); also Amplex Red coupled xanthine oxidase/uricase assay

**Q.** CC(C)[C@H](N)C(=O)OCCOCn1cnc2c(=O)[nH]c(N)nc21 [valacyclovir] was tested. Which Kd [1] did it give?
**A.** Its Kd is 74.4 µM.

**Q.** For Nc1nc2nc[nH]c2c(=O)[nH]1 [guanine], which Kd [2] is on record?
**A.** The Kd was 0.598 µM.

**Q.** With Nc1nc2c(ncn2COCCO)c(=O)[nH]1 [acyclovir] as the compound, how does the Kd [3] read?
**A.** Its Kd is 227 µM.
